Measured values reported in article PMC11747586, “Synthesis and Investigation of Peptide–Drug Conjugates Comprising Camptothecin and a Human Protein‐Derived Cell‐Penetrating Peptide” (Chemical Biology & Drug Design, 2025).
Where two headings read alike, the source gives them in different places. Residues, ends and D or L forms follow the SMILES beside them.

Legend:
[1] = Cytotoxicity (resazurin) against cultured HaCaT noncancerous cells
Method: (§1) Cell death was measured using resazurin, with 0.1% (v/v) Triton X‐100 as a control for 100% cell death. Data points are expressed as mean ± SD for at least two biological replicates. Dose response curves were fitted using [inhibitor] versus response with variable slope, Graphpad Prism v10. […] RBC lysis was determined by measuring released hemoglobin, with 0.1% (v/v) Triton X‐100 as a control for 100% cell lysis. Melittin was included as a membranolytic control. Data points are expressed as mean ± SD for two technical replicates. Dose response curves were fitted using [inhibitor] versus response with variable slope, Graphpad Prism v10. […] CC50 values are expressed as mean (SEM). […]
(§2) HaCaT cells were grown in DMEM medium and HT144 cells were grown in RPMI medium supplemented with 2 mM L-glutamine and 10 mM sodium pyruvate. Media were supplemented with 10% (v/v) fetal bovine serum, 100 units/mL of penicillin and […] of streptomycin. Flasks of cultured cells were maintained in a humidified incubator (37 °C, 5% CO2) and passaged every 2–3 days to maintain cultures between 20–90% confluence. Cell line identity was verified by comparing […]
(§3) STR profiles of the cell lines against database entries from the DSMZ-German collection of microorganisms and cell cultures, GmBH https://celldive.dsmz.de/str/browse.
(§4) Toxicity to the HT144 and HaCaT cell lines was tested following peptide treatment by measuring the metabolism of resazurin into fluorescent resorufin. The assays were performed with 5000 cells/well (96-well plate) in serum free media. Cells were incubated with serially diluted peptides, PDCs or drugs for 72 h or 24 h (37 °C, 5% CO2). PBS and 0.1% (v/v) Triton X-100 were included as controls for 0% and 100% toxicity. Resazurin was added at 0.02% (w/v) final concentration 2 h prior to the assay end point. Fluorescence (λex = 560 nm, λem = 585 nm) was measured using a Tecan infinite M1000Pro multiplate reader. Percentage cytotoxicity was calculated relative to 0% and 100% controls.
(§5) Dose-response curves were fitted and CC50 values were determined using [inhibitor] vs response with four parameters with the top constrained to 100% (GraphPad Prism version 10.0.2). Data was collected as three biological replicates, with experiments conducted on different days.
(§6) Red blood cell (RBC) lysis
(§7) Human RBCs and serum were obtained from healthy volunteers via the Red Cross Lifeblood, Brisbane, Australia. RBCs were washed three times with PBS and stored in culture medium (RPMI

[2] = Parallel artificial membrane permeability assay (PAMPA); format: in vitro ADME; settings: for Papp at 4 h, 4 μM: PAMPA
Method: FIGURE 4 (A) Membrane permeability and cellular uptake of PDCs, scaffold peptides, and CPT. Compounds were added to PAMPA wells (4 μM) and incubated for 4 h. Supernatant from apical and basolateral sides of the membrane were collected and analyzed using LC–MS. The amount in the combined soluble fractions was compared to the starting amount to determine % recovery, and the apparent permeability (Papp) was calculated as before (Sevin et al. [2013]). Data is expressed as mean ± SD from a single experiment with three technical replicates. (B) Internalization/cell membrane association of PDCs 12–14 and PDIP with HT144 cells. Cells were treated with PDIP or PDCs (4 μM) for 1 h, washed to remove extracellular compound, then extracted with 75% (v/v) MeCN in mQH2O (containing 1.75% (v/v) TFA), to recover soluble peptide or PDC from precipitated cell proteins. The relative amount of internalized peptide or PDC was determined by integrating area under the curve (AUC) for the [M + 6H]^6+ m/z peak (for the intact mass) using time of flight–mass spectrometry (see Figure S2). […] Data is expressed as mean ± SD from a single experiment with three technical replicates for each treatment and control and was analyzed with ANOVA (Tukey multiple comparisons; **p < 0.01, *p < 0.05). (C) Detection of intracellular CPT following 6 h treatment of HT144 cells with CPT and PDCs 12 and 14. […] Data is expressed as mean ± SD from a single experiment with three technical replicates for each treatment and was analyzed with ANOVA (Fisher multiple paired comparisons; **p < 0.01, *p < 0.05). TEXT PRINTED IN THE PICTURE: (A) PDIP: % recovered (soluble fractions): 94 | (A) 12: % recovered (soluble fractions): 58 | (A) 14: % recovered (soluble fractions): 33 | (A) 15: % recovered (soluble fractions): 40 | (A) c[A] PDIP: % recovered (soluble fractions): 34 | (A) CPT: % recovered (soluble fractions): 92 […]
For the first assay, the PDCs (12–15), scaffold peptides and CPT (4 μM) were added to the apical side of PAMPA monolayers and incubated for 4 h. […] PDIP, CPT, and PDCs 12 and 14 had high permeability (Papp ≥ 2 × 10^−6 cm/s), highlighting that these PDCs maintain membrane permeability with the CPT cargo attached. […] Reliable permeability data were not obtained for PDC 13 because of poor recovery of the PDC from soluble fractions, and degradation during the 4 h PAMPA experiment. […] Instability of the carbonate linkage within CPT conjugates containing a dipeptide linker has been previously reported (Walker et al. [2002]), highlighting the potential incompatibility of this drug–linker combination for CPT PDCs. Considering the observed degradation of 13 in the cell‐free assay, it is also possible that extracellular degradation occurred during the cytotoxicity assays.
Parallel artificial membrane permeability assay (PAMPA)
PAMPA was performed according to the manufacturer instructions for the BD Gentest pre-coated PAMPA plate system (BD Biosciences), as previously described.16 Briefly, peptides and PDCs (4 μM in PBS) were added to the apical side of PAMPA wells and incubated for 4 h at 37 °C, 5% CO2 with 95% humidity. Soluble fractions were recovered from the apical and basolateral sides, and compound concentration was quantified using a Shimadzu LCMS-2020 instrument with a Phenomenex 5 µm C18 / 300 Å / 150 x 2 mm LC column. Data was collected from three technical replicates for each compound. The % recovery was determined from (combined from apical and basolateral fractions) relative to the starting concentration:
Recovery rate : R (%) = (C஺ ×V஺ +C஻ ×V஻ )× 100 where CA and CB are the apical and basolateral concentrations (µM), VA and VB are the apical and basolateral volumes (mL), and C0 is the initial concentration (µM).
The apparent permeability coefficient (Papp) was calculated using the following equations17 and where A is the membrane surface area (cm2): […]

HT144 (melanoma) cells = test: cells; settings: 72 h, concentration range 16 nM—2 μM
Method: (§8) Cell death was measured using resazurin, with 0.1% (v/v) Triton X‐100 as a control for 100% cell death. Data points are expressed as mean ± SD for at least two biological replicates. Dose response curves were fitted using [inhibitor] versus response with variable slope, Graphpad Prism v10. […] RBC lysis was determined by measuring released hemoglobin, with 0.1% (v/v) Triton X‐100 as a control for 100% cell lysis. Melittin was included as a membranolytic control. Data points are expressed as mean ± SD for two technical replicates. Dose response curves were fitted using [inhibitor] versus response with variable slope, Graphpad Prism v10. […] CC50 values are expressed as mean (SEM).
(§9) Cell death was measured using resazurin, with 0.1% (v/v) Triton X-100 as a control for 100% cell death. Data points are expressed as mean ± SD for at least two biological replicates. CC50 values are expressed as mean (SEM). Note: CPT-dipeptide-PDIP was not included in this study. c[A]PDIP is a desulfurized variant of cPDIP 2 (see Table S1) to prevent the presence of free thiol during assays. […]
as §2, §3
(§10) Toxicity to the HT144 and HaCaT cell lines was tested following peptide treatment by measuring the metabolism of resazurin into fluorescent resorufin. The assays were performed with 5000 cells/well (96-well plate) in serum free media. Cells were incubated with serially diluted peptides, PDCs or […]

cells = test: cells
Method: as §8, §9, §2, §3, §10

[3] = tested on: HaCaT (noncancerous) cells; test: Cytotoxicity (resazurin) against cultured HaCaT noncancerous cells; settings: read-out: CC50 HaCaT; 72 h incubation, resazurin; mean (SEM)
Method: as §1, §2, §3, §4, §5, §6, §7

Structure (SMILES): CC[C@H](C)[C@@H]1NC(=O)[C@H](CCCCN)NC(=O)[C@H](CCCCN)NC(=O)[C@H](Cc2ccc(O)cc2)NC(=O)[C@H](CC(C)C)NC(=O)[C@@H]2CCCN2C(=O)CNC(=O)CNC(=O)[C@@H](NC(=O)CN)CSSC[C@@H](C(=O)N[C@@H](CCC(=O)O)C(=O)N[C@@H](CO)C(N)=O)NC(=O)[C@H](CC(C)C)NC(=O)[C@H](CCCCN)NC(=O)[C@H](CCCCN)NC(=O)[C@H]([C@@H](C)CC)NC(=O)[C@H]([C@@H](C)CC)NC(=O)[C@H](CCCCN)NC(=O)[C@H](CCCCN)NC(=O)[C@H](Cc2ccc(O)cc2)NC(=O)[C@H](CC(C)C)NC(=O)[C@@H]2CCCN2C(=O)[C@H](C)NC(=O)CNC(=O)CNC(=O)[C@H](Cn2cc(CCCC(=O)O[C@]3(CC)C(=O)OCc4c3cc3n(c4=O)Cc4cc5ccccc5nc4-3)nn2)NC(=O)CNC(=O)CNC(=O)[C@H](CO)NC(=O)[C@H](CCC(=O)O)NC(=O)[C@H](CC(C)C)NC(=O)[C@H](CC(C)C)NC(=O)[C@H](CCCCN)NC(=O)[C@H](CCCCN)NC(=O)[C@H]([C@@H](C)CC)NC1=O [PDC 12]
- CC50 [1]: > 2 µM
- % recovered (soluble fractions) ([2]; 4 μM, 4 h, combined apical and basolateral fractions): 58%
- Papp at 4 h, 4 μM ([2]; 4 μM, 4 h, apical to basolateral, read-out: apparent permeability (Papp)): ≥ 2 ×10⁻⁶ cm/s
- cytotoxic activity against HT144 (HT144 (melanoma) cells): no activity
- CC50 (cells): > 2 µM

Structure (SMILES): CC[C@H](C)[C@@H]1NC(=O)[C@H](CCCCN)NC(=O)[C@H](CCCCN)NC(=O)[C@H](Cc2ccc(O)cc2)NC(=O)[C@H](CC(C)C)NC(=O)[C@@H]2CCCN2C(=O)[C@H](C)NC(=O)CNC(=O)CNC(=O)[C@H](CO)NC(=O)CNC(=O)CNC(=O)[C@H](CO)NC(=O)[C@H](CCC(=O)O)NC(=O)[C@H](CC(C)C)NC(=O)[C@H](CC(C)C)NC(=O)[C@H](CCCCN)NC(=O)[C@H](CCCCN)NC(=O)[C@H]([C@@H](C)CC)NC(=O)[C@H]([C@@H](C)CC)NC(=O)[C@H](CCCCN)NC(=O)[C@H](CCCCN)NC(=O)[C@H](Cc2ccc(O)cc2)NC(=O)[C@H](CC(C)C)NC(=O)[C@@H]2CCCN2C(=O)[C@H](C)NC(=O)CNC(=O)CNC(=O)[C@H](C)NC(=O)CNC(=O)CNC(=O)[C@H](CO)NC(=O)[C@H](CCC(=O)O)NC(=O)[C@H](CC(C)C)NC(=O)[C@H](CC(C)C)NC(=O)[C@H](CCCCN)NC(=O)[C@H](CCCCN)NC(=O)[C@H]([C@@H](C)CC)NC1=O [c[A]PDIP] (cyclo(AGGAPLYKKIIKKLLESGGSGGAPLYKKIIKKLLESGG))
- CC50 [3]: ≥ 32 µM
- CC50 [1]: ~32 µM
- Papp at 4 h, 4 μM [2]: ~0.4 ×10⁻⁶ cm/s
- CC50 (cells): 9.35 µM
